For data set [1] the following is noted: normal Fischer rats, 60 minutes; cited from earlier work.
Data set [2] has as its system human melanoma transplants. The conditions noted are these: cited from earlier work.
For data set [3] the following is noted: cited from earlier work.
Data set [4] relates to 9 L gliosarcoma tumor. The conditions noted are these: same rodent tumor model, 60 minutes; cited from earlier work.
[5] abbreviates: nude Swiss mice bearing human melanoma transplants, 60 minutes.
Setting [6] is: healthy Copenhagen rats, 60 minutes.

In the case of `N[C@]1(C(=O)O)C[C@@H](F)C1` [trans-[^18F]FACBC, trans-1-amino-3-[^18F]fluorocyclobutyl-1-carboxylic acid], in data set [1], the pancreatic uptake is reported as 3.4 % ID/g.

As for `CC(C)(N)C(=O)O` [[^14C]AIB], in data set [2] (setting [5]), the “mean RC, brain” value was 0.23; the “mean RC, kidneys” value was 3.4; the “mean RC, pancreas” value is reported as 8.6.

As for `CC([11CH3])(N)C(=O)O` (stereo not drawn) [[^11C]AIB, [^11C]α-aminoisobutyric acid], in data set [3] (setting [6]), the “mean relative concentration (mean RC), brain” value is on record as 0.2; the “mean relative concentration (mean RC), kidneys” value is 10.3; the “mean relative concentration (mean RC), pancreas” value is 6.0.

In the case of `CC(C)(N)C(=O)O` [AIB, α-aminoisobutyric acid], the “mean RC in pancreas and kidneys” value is given as “greater than 1.8” in data set [2] (mice, within 5-15 minutes post-injection) and “greater than 1.8” in data set [3] (rats, within 5-15 minutes post-injection).

Turning to `OC[C@H]1OC(O)[C@H]([18F])[C@@H](O)[C@@H]1O` (stereo partly drawn) [[^18F]FDG, 2-[^18F]fluorodeoxyglucose], in data set [4], the “uptake in normal brain” value is listed as 1.30 % ID/g and the “uptake in tumor tissue” value is 1.05 % ID/g.

In general, melting point refers to the temperature, or range, at which the solid turns liquid. The compound `CN1C(C)(C(=O)OC(C)(C)C)COS1(=O)=O` (stereo not drawn) [Compound 14b, 3,4-dimethyl-1,2,3-oxathiazolidine-4-carboxylic acid tert-butyl ester 2,2-dioxide] showed a melting point of 54 to 55 °C.

Source of the values: patent US7989649B2, “Tumor imaging compounds” (Emory University, priority 2002, dated 2011).
